Laboratory results taken from patent US9732075B2, “Benzimidazole-proline derivatives” (IDORSIA PHARMACEUTICALS LTD, priority 2012, dated 2017).

Key:
human orexin-2 receptor = human orexin-2 receptor (Homo sapiens (Human), UniProt O43614); test: In vitro assay: intracellular calcium measurements (FLIPR), antagonistic activity; format: cell-based; details: CHO cells expressing human orexin-2 receptor, orexin-A agonist, geometric mean, read-out: IC50 Ox2
Protocol: (§1) In Vitro Assay: Intracellular Calcium Measurements:
(§2) Chinese hamster ovary (CHO) cells expressing the human orexin-1 receptor and the human orexin-2 receptor, respectively, are grown in culture medium (Ham F-12 with L-Glutamine) containing 300 μg/ml G418, 100 U/ml penicillin, 100 μg/ml streptomycin and 10% heat inactivated fetal calf serum (FCS). The cells are seeded at 20,000 cells/well into 384-well black clear bottom sterile plates (Greiner). The seeded plates are incubated overnight at 37° C. in 5% CO2.
(§3) Human orexin-A as an agonist is prepared as 1 mM stock solution in MeOH: water (1:1), diluted in HBSS containing 0.1% bovine serum albumin (BSA), NaHCO3: 0.375 g/l and 20 mM HEPES for use in the assay at a final concentration of 3 nM.
(§4) Antagonists are prepared as 10 mM stock solution in DMSO, then diluted in 384-well plates using DMSO followed by a transfer of the dilutions into in HBSS containing 0.1% bovine serum albumin (BSA), NaHCO3: 0.375 g/l and 20 mM HEPES. On the day of the assay, 50 μl of staining buffer (HBSS containing 1% FCS, 20 mM HEPES, NaHCO3: 0.375 g/l, 5 mM probenecid (Sigma) and […] of the fluorescent calcium indicator fluo-4 AM (1 mM stock solution in DMSO, containing 10% pluronic) is added to each well. The 384-well cell-plates are incubated for 50 min at 37° C. in 5% CO2 followed by equilibration at RT for 30 min before measurement.
(§5) Within the Fluorescent Imaging Plate Reader (FLIPR Tetra, Molecular Devices), antagonists are added to the plate in a volume of 10 μl/well, incubated for 120 min and finally 10 μl/well of agonist is added. Fluorescence is measured for each well at 1 second intervals, and the height of each fluorescence peak is compared to the height of the fluorescence peak induced by an approximate EC70 (for example 5 nM) of orexin-A with vehicle in place of antagonist. The IC50 value (the concentration of compound needed to inhibit 50% of the agonistic response) is determined and may be normalized using the obtained IC50 value of a on-plate reference compound. Optimized conditions are achieved by adjustment of pipetting speed and cell splitting regime. The calculated IC50 values may fluctuate depending on the daily cellular assay performance. Fluctuations of this kind are known to those skilled in the art. Average IC50 values from several measurements are given as geometric mean values.

human orexin-1 receptor = human orexin-1 receptor (Homo sapiens (Human), UniProt O43613); test: as above; format: cell-based; details: CHO cells expressing human orexin-1 receptor, orexin-A agonist, geometric mean, read-out: IC50 Ox1
Protocol: as §1, §2, §3, §4, §5

human orexin-1 receptor, sequence (O43613 whole entry): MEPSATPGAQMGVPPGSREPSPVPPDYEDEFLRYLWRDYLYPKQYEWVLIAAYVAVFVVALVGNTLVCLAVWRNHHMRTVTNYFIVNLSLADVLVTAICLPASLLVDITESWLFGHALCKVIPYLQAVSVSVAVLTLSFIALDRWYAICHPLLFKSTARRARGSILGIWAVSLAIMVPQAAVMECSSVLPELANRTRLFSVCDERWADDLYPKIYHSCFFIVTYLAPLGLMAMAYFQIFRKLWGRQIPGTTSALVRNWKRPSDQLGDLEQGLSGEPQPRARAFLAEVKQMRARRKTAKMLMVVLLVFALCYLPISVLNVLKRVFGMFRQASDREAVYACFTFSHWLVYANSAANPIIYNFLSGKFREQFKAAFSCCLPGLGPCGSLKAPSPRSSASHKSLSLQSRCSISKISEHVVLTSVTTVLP
human orexin-2 receptor, sequence (O43614 whole entry): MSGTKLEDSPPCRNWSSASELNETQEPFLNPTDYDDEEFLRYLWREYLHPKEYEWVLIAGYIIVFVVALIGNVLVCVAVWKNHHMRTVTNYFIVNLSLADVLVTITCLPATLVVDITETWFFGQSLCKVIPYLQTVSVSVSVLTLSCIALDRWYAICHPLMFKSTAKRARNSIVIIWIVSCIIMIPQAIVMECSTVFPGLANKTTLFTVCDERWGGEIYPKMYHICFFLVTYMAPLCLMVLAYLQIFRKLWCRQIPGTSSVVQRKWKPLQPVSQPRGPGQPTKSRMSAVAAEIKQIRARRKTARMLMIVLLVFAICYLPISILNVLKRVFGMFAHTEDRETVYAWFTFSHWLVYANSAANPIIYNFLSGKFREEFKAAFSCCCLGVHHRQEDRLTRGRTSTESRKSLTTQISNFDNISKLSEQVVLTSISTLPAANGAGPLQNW

Row | IC50 (human orexin-2 receptor) [nM] | IC50 (human orexin-1 receptor) [nM] | SMILES
1 | 17 | 279 | CSc1cccc2nc([C@@H]3CCCN3C(=O)c3ccccc3-n3nccn3)[nH]c12 [Ex. 1.76]
2 | 408 | 102 | CSc1cccc2nc([C@@H]3CCCN3C(=O)c3cncnc3-c3ccc(C)cc3)[nH]c12 [Ex. 1.78]
3 | 46 | 5 | CSc1cccc2nc([C@@H]3CCCN3C(=O)c3cnc(C)nc3-c3ccc(Cl)c(Cl)c3)[nH]c12 [Ex. 1.79]
4 | 564 | 41 | CSc1cccc2nc([C@@H]3CCCN3C(=O)c3cnc(C)nc3-c3ccc(F)cc3)[nH]c12 [Ex. 1.80]
5 | 116 | 20 | CSc1cccc2nc([C@@H]3CCCN3C(=O)c3cnc(C)nc3-c3cccc(Cl)c3)[nH]c12 [Ex. 1.81]
6 | 17 | 13 | CSc1cccc2nc([C@@H]3CCCN3C(=O)c3cncnc3-c3ccc(Cl)c(Cl)c3)[nH]c12 [Ex. 1.82]
7 | 36 | 17 | CSc1cccc2nc([C@@H]3CCCN3C(=O)c3cncnc3-c3ccc(C)c(C)c3)[nH]c12 [Ex. 1.83]
8 | 20 | 14 | CSc1cccc2nc([C@@H]3CCCN3C(=O)c3cncnc3-c3ccc(Br)c(Cl)c3)[nH]c12 [Ex. 1.84]
9 | 23 | 5 | CSc1cccc2nc([C@@H]3CCCN3C(=O)c3cnc(C)nc3-c3ccc(C)c(C)c3)[nH]c12 [Ex. 1.85]
10 | 118 | 56 | COc1cccc(-c2nc(C)ncc2C(=O)N2CCC[C@H]2c2nc3cccc(SC)c3[nH]2)c1 [Ex. 1.86]
11 | 77 | 30 | CSc1cccc2nc([C@@H]3CCCN3C(=O)c3cnc(C)nc3-c3ccccc3)[nH]c12 [Ex. 1.87]
12 | 109 | 102 | CSc1cccc2nc([C@@H]3CCCN3C(=O)c3cncnc3-c3cccc(C)c3)[nH]c12 [Ex. 1.88]
13 | 180 | 39 | CSc1cccc2nc([C@@H]3CCCN3C(=O)c3cncnc3-c3cc(Cl)cc(Cl)c3)[nH]c12 [Ex. 1.89]
14 | 14 | 2 | CSc1cccc2nc([C@@H]3CCCN3C(=O)c3cnc(C)nc3-c3ccc(Br)c(Cl)c3)[nH]c12 [Ex. 1.90]
15 | 25 | 13 | CSc1cccc2nc([C@@H]3CCCN3C(=O)c3cnc(C)nc3-c3cc(Cl)cc(Cl)c3)[nH]c12 [Ex. 1.91]
16 | 69 | 23 | Cc1nc(C(=O)N2CCCC2c2nc3cc(Cl)c(Cl)cc3[nH]2)c(-c2cccc(Cl)c2)s1 (stereo not drawn) [Ex. 1.92]
17 | 458 | 102 | Cc1nc(C(=O)N2CCCC2c2nc3cc(Br)ccc3[nH]2)c(-c2cccc(Cl)c2)s1 (stereo not drawn) [Ex. 1.93]
18 | 414 | 42 | Cc1nc(C(=O)N2CCCC2c2nc3cc(C(F)(F)F)ccc3[nH]2)c(-c2cccc(Cl)c2)s1 (stereo not drawn) [Ex. 1.94]
19 | 15 | 18 | Cc1nc(C(=O)N2CCCC2c2nc3cc(C)c(C)cc3[nH]2)c(-c2cccc(Cl)c2)s1 (stereo not drawn) [Ex. 1.95]
20 | 43 | 54 | Cc1nc(C(=O)N2CCCC2c2nc3c(C)cccc3[nH]2)c(-c2cccc(Cl)c2)s1 (stereo not drawn) [Ex. 1.96]
21 | 314 | 95 | Cc1nc(C(=O)N2CCCC2c2nc3cc(Cl)ccc3[nH]2)c(-c2cccc(Cl)c2)s1 (stereo not drawn) [Ex. 1.97]
22 | 50 | 58 | Cc1nc(C(=O)N2CCCC2c2nc3cc(C(C)(C)C)ccc3[nH]2)c(-c2cccc(Cl)c2)s1 (stereo not drawn) [Ex. 1.99]
23 | 104 | 27 | Cc1nc(C(=O)N2CCCC2c2nc3c(Cl)cc(C(F)(F)F)cc3[nH]2)c(-c2cccc(Cl)c2)s1 (stereo not drawn) [Ex. 1.100]
24 | 50 | 21 | Cc1nc(C(=O)N2CCCC2c2nc3cc(Cl)c(C)cc3[nH]2)c(-c2cccc(Cl)c2)s1 (stereo not drawn) [Ex. 1.101]
25 | 112 | 364 | Cc1nc(C(=O)N2CCCC2c2nc3c(CO)cccc3[nH]2)c(-c2cccc(Cl)c2)s1 (stereo not drawn) [Ex. 1.103]
26 | 769 | 657 | Cc1nc(C(=O)N2CCCC2c2nc3c(F)cccc3[nH]2)c(-c2cccc(Cl)c2)s1 (stereo not drawn) [Ex. 1.104]
27 | 89 | 45 | Cc1nc(C(=O)N2CCCC2c2nc3c(C(F)(F)F)cccc3[nH]2)c(-c2cccc(Cl)c2)s1 (stereo not drawn) [Ex. 1.105]

Row | IC50 (human orexin-2 receptor) [nM] | IC50 (human orexin-1 receptor) [nM] | SMILES
28 | 31 | 17 | Cc1nc(C(=O)N2CCCC2c2nc3c(Br)cccc3[nH]2)c(-c2cccc(Cl)c2)s1 (stereo not drawn) [Ex. 1.106]
29 | 58 | 28 | Cc1nc(C(=O)N2CCCC2c2nc3cc(Br)cc(C)c3[nH]2)c(-c2cccc(Cl)c2)s1 (stereo not drawn) [Ex. 1.107]
30 | 835 | 171 | Cc1nc(C(=O)N2CCCC2c2nc3cc(OC(F)(F)F)ccc3[nH]2)c(-c2cccc(Cl)c2)s1 (stereo not drawn) [Ex. 1.108]
31 | 10 | 5 | Cc1nc(C(=O)N2CCCC2c2nc3c(C)c(Cl)ccc3[nH]2)c(-c2cccc(Cl)c2)s1 (stereo not drawn) [Ex. 1.109]
32 | 46 | 164 | COc1cc2nc(C3CCCN3C(=O)c3nc(C)sc3-c3cccc(Cl)c3)[nH]c2cc1OC (stereo not drawn) [Ex. 1.110]
33 | 243 | 32 | Cc1nc(C(=O)N2CCCC2c2nc3cc(C(F)(F)F)c(F)cc3[nH]2)c(-c2cccc(Cl)c2)s1 (stereo not drawn) [Ex. 1.111]
34 | 289 | 69 | Cc1nc(C(=O)N2CCCC2c2nc3cc(F)c(Br)cc3[nH]2)c(-c2cccc(Cl)c2)s1 (stereo not drawn) [Ex. 1.112]
35 | 58 | 5 | Cc1nc(C(=O)N2CCCC2c2nc3cc(C(F)(F)F)c(Cl)cc3[nH]2)c(-c2cccc(Cl)c2)s1 (stereo not drawn) [Ex. 1.113]
36 | 74 | 30 | Cc1nc(C(=O)N2CCCC2c2nc3c(Br)cc(F)cc3[nH]2)c(-c2cccc(Cl)c2)s1 (stereo not drawn) [Ex. 1.114]
37 | 19 | 37 | Cc1nc(C(=O)N2CCCC2c2nc3c(C)c(C)ccc3[nH]2)c(-c2cccc(Cl)c2)s1 (stereo not drawn) [Ex. 1.115]
38 | 248 | 86 | Cc1nc(C(=O)N2CCCC2c2nc3c(C(C)C)cccc3[nH]2)c(-c2cccc(Cl)c2)s1 (stereo not drawn) [Ex. 1.116]
39 | 364 | 191 | Cc1nc(C(=O)N2CCCC2c2nc3c(C(F)(F)F)cc(C(F)(F)F)cc3[nH]2)c(-c2ccccc2)s1 (stereo not drawn) [Ex. 1.118]
40 | 77 | 27 | Cc1nc(C(=O)N2CCCC2c2nc3cc(Cl)c(Cl)cc3[nH]2)c(-c2ccccc2)s1 (stereo not drawn) [Ex. 1.119]
41 | 557 | 147 | Cc1nc(C(=O)N2CCCC2c2nc3cc(Br)ccc3[nH]2)c(-c2ccccc2)s1 (stereo not drawn) [Ex. 1.120]
42 | 287 | 76 | Cc1nc(C(=O)N2CCCC2c2nc3cc(C(F)(F)F)ccc3[nH]2)c(-c2ccccc2)s1 (stereo not drawn) [Ex. 1.121]
43 | 45 | 55 | Cc1nc(C(=O)N2CCCC2c2nc3cc(C)c(C)cc3[nH]2)c(-c2ccccc2)s1 (stereo not drawn) [Ex. 1.122]
44 | 70 | 147 | Cc1nc(C(=O)N2CCCC2c2nc3c(C)cccc3[nH]2)c(-c2ccccc2)s1 (stereo not drawn) [Ex. 1.123]
45 | 42 | 119 | Cc1nc(C(=O)N2CCCC2c2nc3cc(C(C)(C)C)ccc3[nH]2)c(-c2ccccc2)s1 (stereo not drawn) [Ex. 1.124]
46 | 73 | 39 | Cc1nc(C(=O)N2CCCC2c2nc3c(Cl)cc(C(F)(F)F)cc3[nH]2)c(-c2ccccc2)s1 (stereo not drawn) [Ex. 1.125]
47 | 24 | 18 | Cc1nc(C(=O)N2CCCC2c2nc3cc(Cl)c(C)cc3[nH]2)c(-c2ccccc2)s1 (stereo not drawn) [Ex. 1.126]
48 | 22 | 33 | Cc1cc(C)c2nc(C3CCCN3C(=O)c3nc(C)sc3-c3ccccc3)[nH]c2c1 (stereo not drawn) [Ex. 1.127]
49 | 331 | 1480 | Cc1nc(C(=O)N2CCCC2c2nc3c(CO)cccc3[nH]2)c(-c2ccccc2)s1 (stereo not drawn) [Ex. 1.128]
50 | 124 | 93 | Cc1nc(C(=O)N2CCCC2c2nc3c(C(F)(F)F)cccc3[nH]2)c(-c2ccccc2)s1 (stereo not drawn) [Ex. 1.129]
51 | 75 | 113 | Cc1nc(C(=O)N2CCCC2c2nc3c(Br)cccc3[nH]2)c(-c2ccccc2)s1 (stereo not drawn) [Ex. 1.130]
52 | 48 | 37 | Cc1nc(C(=O)N2CCCC2c2nc3cc(Br)cc(C)c3[nH]2)c(-c2ccccc2)s1 (stereo not drawn) [Ex. 1.131]
53 | 614 | 90 | Cc1nc(C(=O)N2CCCC2c2nc3cc(OC(F)(F)F)ccc3[nH]2)c(-c2ccccc2)s1 (stereo not drawn) [Ex. 1.132]
54 | 11 | 4 | Cc1nc(C(=O)N2CCCC2c2nc3c(C)c(Cl)ccc3[nH]2)c(-c2ccccc2)s1 (stereo not drawn) [Ex. 1.133]
